Assay results from patent publication US20170355705A1 (GlaxoSmithKline Intellectual Property (No.2) Limited, priority 2014, published 2017).

Biological target: T1, SIRT1 (Homo sapiens, UniProt Q96EB6)
T1 sequence (Q96EB6 1-747): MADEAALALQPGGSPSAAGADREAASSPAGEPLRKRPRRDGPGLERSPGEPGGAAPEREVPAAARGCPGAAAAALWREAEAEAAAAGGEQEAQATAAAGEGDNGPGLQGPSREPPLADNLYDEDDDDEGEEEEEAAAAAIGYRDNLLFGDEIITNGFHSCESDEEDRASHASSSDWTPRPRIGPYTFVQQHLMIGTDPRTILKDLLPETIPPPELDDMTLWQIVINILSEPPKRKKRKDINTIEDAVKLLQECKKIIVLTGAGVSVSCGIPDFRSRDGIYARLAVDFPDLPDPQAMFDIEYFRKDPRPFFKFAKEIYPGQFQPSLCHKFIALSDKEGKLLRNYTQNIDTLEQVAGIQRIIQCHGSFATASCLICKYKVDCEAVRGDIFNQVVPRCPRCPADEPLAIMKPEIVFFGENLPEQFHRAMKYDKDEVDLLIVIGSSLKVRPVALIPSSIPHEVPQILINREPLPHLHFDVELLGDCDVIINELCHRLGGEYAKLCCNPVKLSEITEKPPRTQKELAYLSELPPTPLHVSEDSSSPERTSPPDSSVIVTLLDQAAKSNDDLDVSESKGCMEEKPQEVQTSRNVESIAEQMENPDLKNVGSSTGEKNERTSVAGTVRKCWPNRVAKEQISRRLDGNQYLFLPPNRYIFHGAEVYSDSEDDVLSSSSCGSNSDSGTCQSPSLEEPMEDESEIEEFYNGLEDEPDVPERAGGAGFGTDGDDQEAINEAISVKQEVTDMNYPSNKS
Assay: Trp mass spectrometry assay of SIRT1 activity (EC1.5, percent maximum activation)
Type: biochemical
Details: Trp mass spectrometry assay; for TRP Activity (EC1.5): EC1.5 = concentration giving 150% activation of SIRT1
How it was run: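 N-terminal His-tagged human SIRT1 from E. coli BL21(DE3) was incubated 25 min with a 5TMR-labelled, p53-derived Trp peptide and NAD plus varying compound concentrations, then quenched with formic acid. Mass spectrometry quantified OAADPR or deacetylated peptide versus compound-free control, giving EC1.5 and percent maximum activation.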

[1] = percent maximum activation of SIRT1
[2] = 0.5 μM peptide substrate, 120 μM βNAD+, 10 nM SIRT1, 25 minutes at 25° C.

TRP Activity (EC1.5)	TRP MAX RESP (percent maximum fold activation) [1]	TRP Activity (EC1.5, concentration of test compound that results in 150% activation of SIRT1) [2]	TRP MAX RESP (percent maximum fold activation) [2]	Structure (SMILES)
–	–	B (EC1.5 1-25 μM)	A (Fold activation ≧150%)	Cc1cc(-c2ccc3c(n2)N(C(=O)Nc2cnccn2)[C@H]2CCN3C2)cnn1 [Example 212, (4S)-7-(6-methylpyridazin-4-yl)-N-(pyrazin-2-yl)-3,4-dihydro-1,4-methanopyrido[2,3-b][1,4]diazepine-5(2H)-carboxamide]
C (EC1.5>25 μM)	B (Fold Activation <150%)	–	–	O=C(Nc1cnccn1)N1c2nc(N3CCNCC3)ccc2N2CC[C@H]1C2 [Example 197, (4S)-7-(piperazin-1-yl)-N-(pyrazin-2-yl)-3,4-dihydro-1,4-methanopyrido[2,3-b][1,4]diazepine-5(2H)-carboxamide]
B (EC1.5 1-25 μM)	A (Fold activation ≧150%)	–	–	O=C(Nc1ccnc(OC[C@@H](O)CO)c1)N1c2nc(-c3ccnc(C(F)(F)F)c3)c(Cl)cc2N2CC[C@H]1C2 [Example 108, (4S)-8-chloro-N-(2-((S)-2,3-dihydroxypropoxy)pyridin-4-yl)-7-(2-(trifluoromethyl)pyridin-4-yl)-3,4-dihydro-1,4-methanopyrido[2,3-b][1,4]diazepine-5(2H)-carboxamide]
B (EC1.5 1-25 μM)	A (Fold activation ≧150%)	–	–	Cc1cc(-c2ccc3c(n2)N(C(=O)Nc2nccc4nccnc24)[C@H]2CCN3C2)ccn1 [Example 152, (4S)-7-(2-methylpyridin-4-yl)-N-(pyrido[3,4-b]pyrazin-5-yl)-3,4-dihydro-1,4-methanopyrido[2,3-b][1,4]diazepine-5(2H)-carboxamide]
–	–	A (EC1.5<1 μM)	A (Fold activation ≧150%)	O=C(Nc1cnccn1)N1c2nc(N3CCOC(C(F)(F)F)C3)ccc2N2CC[C@H]1C2 (single isomer, unassigned) [Example 231]
–	–	B (EC1.5 1-25 μM)	A (Fold activation ≧150%)	CCc1cnc(NC(=O)N2c3nc(-c4ccc(C)nc4)ccc3N3CC[C@H]2C3)cn1 [Example 220, (4S)-N-(5-ethylpyrazin-2-yl)-7-(6-methylpyridin-3-yl)-3,4-dihydro-1,4-methanopyrido[2,3-b][1,4]diazepine-5(2H)-carboxamide]
A (EC1.5<1 μM)	A (Fold activation ≧150%)	–	–	Cc1cc(-c2ccc3c(n2)N(C(=O)Nc2ccc4[nH]ncc4n2)[C@H]2CCN3C2)ccn1 [Example 133, (4S)-7-(2-methylpyridin-4-yl)-N-(1H-pyrazolo[4,3-b]pyridin-5-yl)-3,4-dihydro-1,4-methanopyrido[2,3-b][1,4]diazepine-5(2H)-carboxamide]
B (EC1.5 1-25 μM)	A (Fold activation ≧150%)	–	–	Cc1cncc(-c2ccc3c(n2)N(C(=O)Nc2cnccn2)[C@H]2CCN3C2)c1 [Example 154, (4S)-7-(5-methylpyridin-3-yl)-N-(pyrazin-2-yl)-3,4-dihydro-1,4-methanopyrido[2,3-b][1,4]diazepine-5(2H)-carboxamide]
B (EC1.5 1-25 μM)	A (Fold activation ≧150%)	–	–	O=C(Nc1cnccn1)N1c2nc(-c3ccn[nH]3)ccc2N2CC[C@H]1C2 [Example 176, (4S)-N-(pyrazin-2-yl)-7-(1H-pyrazol-5-yl)-3,4-dihydro-1,4-methanopyrido[2,3-b][1,4]diazepine-5(2H)-carboxamide]
–	–	–	A (Fold activation ≧150%)	O=C(Nc1ncnc2cccc(F)c12)N1c2nc(-c3cccc(C(F)(F)F)c3)ccc2N2CC[C@H]1C2 [Example 361]
B (EC1.5 1-25 μM)	A (Fold activation ≧150%)	–	–	O=C(Nc1cnccn1)N1c2nc(N3CCOCC3)ccc2N2CC[C@H]1C2 [Example 160, (4S)-7-morpholino-N-(pyrazin-2-yl)-3,4-dihydro-1,4-methanopyrido[2,3-b][1,4]diazepine-5(2H)-carboxamide]
–	–	B (EC1.5 1-25 μM)	A (Fold activation ≧150%)	Cc1cc(-c2ccc3c(n2)N(C(=O)Nc2cnccn2)[C@H]2CCN3C2)c(F)cn1 [Example 217, (4S)-7-(5-fluoro-2-methylpyridin-4-yl)-N-(pyrazin-2-yl)-3,4-dihydro-1,4-methanopyrido[2,3-b][1,4]diazepine-5(2H)-carboxamide]
A (EC1.5<1 μM)	A (Fold activation ≧150%)	–	–	O=C(Nc1cnccn1)N1c2nc(-c3ccnc(C4CC4)c3)ccc2N2CC[C@H]1C2 [Example 136, (4S)-7-(2-cyclopropylpyridin-4-yl)-N-(pyrazin-2-yl)-3,4-dihydro-1,4-methanopyrido[2,3-b][1,4]diazepine-5(2H)-carboxamide]

Second part, the compound before the results:

Structure (SMILES)	TRP Activity (EC1.5)	TRP MAX RESP (percent maximum fold activation) [1]	TRP Activity (EC1.5, concentration of test compound that results in 150% activation of SIRT1) [2]	TRP MAX RESP (percent maximum fold activation) [2]
O=C(Nc1ccc(OC[C@@H](O)CO)cn1)N1c2nc(-c3cccc(C(F)(F)F)c3)c(Cl)cc2N2CC[C@H]1C2 [Example 81, (4S)-8-chloro-N-(5-((S)-2,3-dihydroxypropoxy)pyridin-2-yl)-7-(3-(trifluoromethyl)phenyl)-3,4-dihydro-1,4-methanopyrido[2,3-b][1,4]diazepine-5(2H)-carboxamide]	B (EC1.5 1-25 μM)	A (Fold activation ≧150%)	–	–
O=C(Nc1cncc(OC[C@@H](O)CO)n1)N1c2nc(-c3cccc(C(F)(F)F)c3)c(Cl)cc2N2CC[C@H]1C2 [Example 45, (4S)-8-chloro-N-(6-((S)-2,3-dihydroxypropoxy)pyrazin-2-yl)-7-(3-(trifluoromethyl)phenyl)-3,4-dihydro-1,4-methanopyrido[2,3-b][1,4]diazepine-5(2H)-carboxamide]	A (EC1.5<1 μM)	A (Fold activation ≧150%)	–	–
Cc1ccc(-c2cc(C)c3c(n2)N(C(=O)Nc2cccnc2)[C@H]2CCN3C2)cn1 [Example 13, (4S)-9-methyl-7-(6-methylpyridin-3-yl)-N-(pyridin-3-yl)-3,4-dihydro-1,4-methanopyrido[2,3-b][1,4]diazepine-5(2H)-carboxamide]	B (EC1.5 1-25 μM)	A (Fold activation ≧150%)	–	–
O=C(Nc1ccnc(OCCO)n1)N1c2nc(-c3cccc(C(F)(F)F)c3)c(Cl)cc2N2CC[C@H]1C2 [Example 70, (4S)-8-chloro-N-(2-(2-hydroxyethoxy)pyrimidin-4-yl)-7-(3-(trifluoromethyl)phenyl)-3,4-dihydro-1,4-methanopyrido[2,3-b][1,4]diazepine-5(2H)-carboxamide]	A (EC1.5<1 μM)	A (Fold activation ≧150%)	–	–
O=C(Nc1cnc(OC[C@@H](O)CO)cn1)N1c2nc(-c3cccc(C(F)(F)F)c3)c(Cl)cc2N2CC[C@H]1C2 [Example 33, (4S)-8-chloro-N-(5-((S)-2,3-dihydroxypropoxy)pyrazin-2-yl)-7-(3-(trifluoromethyl)phenyl)-3,4-dihydro-1,4-methanopyrido[2,3-b][1,4]diazepine-5(2H)-carboxamide]	B (EC1.5 1-25 μM)	A (Fold activation ≧150%)	–	–
O=C(Nc1ccnc(OC[C@@H](O)CO)c1)N1c2nc(-c3cccc(C(F)F)c3)c(Cl)cc2N2CC[C@H]1C2 [Example 107, (4S)-8-chloro-7-(3-(difluoromethyl)phenyl)-N-(2-((S)-2,3-dihydroxypropoxy)pyridin-4-yl)-3,4-dihydro-1,4-methanopyrido[2,3-b][1,4]diazepine-5(2H)-carboxamide]	A (EC1.5<1 μM)	A (Fold activation ≧150%)	–	–
O=C(Nc1cnccn1)N1c2nc(N3CCOC(C4CC4)C3)ccc2N2CC[C@H]1C2 (stereo partly shown)	–	–	–	A (Fold activation ≧150%)
O=C(Nc1nccc(OC[C@H](O)CO)n1)N1c2nc(-c3cccc(C(F)(F)F)c3)c(Cl)cc2N2CC[C@H]1C2 [Example 46, (4S)-8-chloro-N-(4-((R)-2,3-dihydroxypropoxy)pyrimidin-2-yl)-7-(3-(trifluoromethyl)phenyl)-3,4-dihydro-1,4-methanopyrido[2,3-b][1,4]diazepine-5(2H)-carboxamide]	A (EC1.5<1 μM)	A (Fold activation ≧150%)	–	–
